# Source: US10385085B2, “Crystal forms of sialic acid or salt or solvate thereof” (Ultragenyx Pharmaceutical Inc., priority 2015, dated 2019)
# Values joined by “and” are separate entries in the source; they are usually repeats but may differ in a detail not shown here. Equal entries are not always repeated.
# What was measured:
# Assay type in all cases: physicochemical
# [1] = 7 day stress stability, chemical stability by HPLC; details: for Chemical stability: 1 week stress test, conditions studied; for Sialic acid Area % (HPLC): two injections
# Experimental: The chemical purity was measured on an Agilent HP1100 HPLC system fitted with an Agilent variable wavelength UV detector. Samples were prepared by dissolving in diluent at a concentration of 1 mg/mL before being analysed under the following HPLC conditions:
# (§1) The selected Forms (5, 3 and 2) were fully characterized by PLM, XRPD, ^1H NMR and IR spectroscopy, DSC, TG/DTA, GVS (with post-GVS XRPD), Karl Fischer titration for water content and HPLC analysis for purity. All of these forms with the addition of Form 1 were also placed under a stress-stability test, at three different conditions for one week (ambient conditions, 40° C. and 75% relative humidity, 80° C.). In addition to this, an approximate solubility test was conducted on the different solid forms using a solvent addition method.
# (§2) All four Forms (1, 2, 3 and 5) were placed under 7 day stress stability testing. This was carried out by placing the four forms under three different conditions for one week. Their physical stability was then analyzed by comparing the diffractograms and the chemical stability was checked by HPLC.
# [2] = 7 day stress stability, physical form by XRPD
# Experimental: XRPD analysis was carried out on a Panalytical X′pert Pro, scanning the samples between 3 and 35° […]. The material was gently ground and loaded onto a multi well plate with Kapton or mylar polymer film to support the sample. The multi well plate was then loaded into a Panalytical diffractometer running in transmission mode and analysed, using the following experimental conditions.
# as §1, §2
# [3] = Gravimetric Vapour Sorption (GVS) with post-GVS XRPD; details: for Polymorphic form after GVS (XRPD): material reclaimed after GVS run
# Experimental: Approximately 10-20 mg of sample was placed into a mesh vapour sorption balance pan and loaded into an IGASorp Moisture Sorption Analyser balance by Hiden Analytical. The sample was subjected to a ramping profile from 40-90% relative humidity (RH) at 10% increments, maintaining the sample at each step until a stable weight had been achieved (98% step completion). After completion of the sorption cycle, the sample was dried using the same procedure to 0% RH, and finally taken back to the starting point of 40% RH. The weight change during the sorption/desorption cycles were plotted, allowing for the hygroscopic nature of the sample to be determined.
# [4] = Approximate aqueous solubility of the solid forms (solvent addition method)
# Experimental: as §1
# Approximately 50 mg of each form (1, 2, 3 and 5) was weighed into a 2 ml vial. 20 μl aliquots of deionized water was added to each vial until complete dissolution of the solid was observed. The volume was noted down and the approximate water solubility calculated.
# HPLC-UV chemical purity = details: summary Table 13
# Experimental: The chemical purity was measured on an Agilent HP1100 HPLC system fitted with an Agilent variable wavelength UV detector. Samples were prepared by dissolving in diluent at a concentration of 1 mg/mL before being analysed under the following HPLC conditions: […]
# [5] = Thermogravimetric/Differential Thermal Analysis (TG/DTA)
# Experimental: Approximately, 10 mg of material was weighed into an open aluminium pan and loaded into a simultaneous thermogravimetric/differential thermal analyser (TG/DTA) and held at room temperature. The sample was then heated at a rate of 10° C./min from 25° C. to 300° C. during which time the change in sample weight was recorded along with any differential thermal events (DTA). Nitrogen was used as the purge gas, at a flow rate of 300 cm^3/min.
# [6] = Differential Scanning Calorimetry (DSC)
# Experimental: Approximately, 5 mg of material was weighed into an aluminium DSC pan and sealed non-hermetically with a pierced aluminium lid. The sample pan was then loaded into a Seiko DSC6200 (equipped with a cooler) cooled and held at 25° C. Once a stable heat-flow response was obtained, the sample and reference were heated to 210° C. at a scan rate of 10° C./min and the resulting heat flow response monitored. Nitrogen was used as the purge gas, at a flow rate of 50 cm^3/min.
# [7] = PLM (morphology) of the solid forms
# [8] = Approximate solvent solubility screen (aliquot addition); details: for solubility: 40 °C, thermodynamic from solid
# Experimental: Approximately 10 mg of sialic acid was used to check the solubility in 31 different solvents or solvent mixtures.
# 50 μl aliquots of solvent were added in attempts to dissolve the sialic acid. The volume range used varied between 50 μl and 2 ml. Dissolution was aided by heating to 40° C. and shaking the vial between aliquots.
# The mixture of solvents Ethanol:Acetone:Ethyl acetate (85:12:3 wt %) will be referred to as “Ethynol” hereafter.
# [9] = 1 week under ambient conditions
# [10] = stability under ambient conditions
smiles,measurement,setting,value
"CC(=O)N[C@H]1[C@H]([C@H](O)[C@H](O)CO)OC(O)(C(=O)O)C[C@@H]1O (stereo partly shown) [An embodiment of Form 2, N-acetylneuraminic acid]",Chemical stability,[1],good
same,Physical form (XRPD) after stress,[2]; 1 week at 40° C./75% RH,converts to Form 1
same,Physical form (XRPD) after stress,[2]; 1 week at 80° C.,stable
same,Physical form (XRPD) after stress,[2]; [9],mixture of Forms 1 and 2
same,Hygroscopicity (GVS),[3],slightly hygroscopic
same,GVS weight loss on sorption,[3]; RH>50%,ca. 1.5%
same,Polymorphic form after GVS (XRPD),[3],transformed to Form 1
"CC(=O)N[C@H]1[C@H]([C@H](O)[C@H](O)CO)OC(O)(C(=O)O)C[C@@H]1O (stereo partly shown) [Form 2, N-acetylneuraminic acid]",Approximate solubility,[4]; aqueous,105000 µg/mL
same,"Aqueous Solubility, Solubility in g/L","[4]; deionized water, approximate, solvent addition",105 g/L
same,Chemical stability,[1],good chemical stability
same,Sialic acid Area % (HPLC),"[1]; after 1 week under 40° C., 75% RH",99.405% and 99.360%
same,Acetic acid Area % (HPLC),[1]; after 1 week under 80° C.,0.075% and 0.072%
same,Sodium Pyruvate Area % (HPLC),[1]; after 1 week under 80° C.,0.076% and 0.077%
same,Sialic acid Area % (HPLC),[1]; after 1 week under 80° C.,99.348% and 99.372%
same,Sialic acid Area % (HPLC),[1]; after 1 week under ambient conditions,99.561% and 99.605%
same,HPLC purity of recovered samples,"[1]; after 1 week, all three conditions (ambient; 40° C./75% RH; 80° C.)",higher than 99.4%
same,Area % Acetic acid (HPLC),"[1]; stability under 40° C., 75% RH",0.000%
same,Area % N-acetyl-D-glucosamine (HPLC),"[1]; stability under 40° C., 75% RH",0.000%
same,Area % N-acetyl-D-mannosamine (HPLC),"[1]; stability under 40° C., 75% RH",0.000%
same,Area % Sodium Pyruvate (HPLC),"[1]; stability under 40° C., 75% RH",0.000%
same,Area % Acetic acid (HPLC),[1]; stability under 80° C.,0.000%
same,Area % N-acetyl-D-glucosamine (HPLC),[1]; stability under 80° C.,0.000%
same,Area % N-acetyl-D-mannosamine (HPLC),[1]; stability under 80° C.,0.000%
same,Area % Sialic acid (HPLC),[1]; stability under 80° C.,99.601% and 99.566%
same,Area % Sodium Pyruvate (HPLC),[1]; stability under 80° C.,0.000% and 0.044%
same,Area % Acetic acid (HPLC),[1]; [10],0.000%
same,Area % N-acetyl-D-glucosamine (HPLC),[1]; [10],0.000%
same,Area % N-acetyl-D-mannosamine (HPLC),[1]; [10],0.000%
same,Area % Sodium Pyruvate (HPLC),[1]; [10],0.000%
same,Physical form (XRPD) after stress,[2]; 1 week at 40° C./75% RH,converts to Form 1
same,Physical form (XRPD) after stress,[2]; 1 week at 80° C.,stable
same,Physical form (XRPD) after stress,[2]; [9],stable
same,Stability - XRPD post Stability,[2]; at 80° C.,Form 2 at 80 °C
same,Stability - XRPD post Stability,[2]; at RT,Form 1 + 2 at RT
same,DVS (hygroscopicity),[3],Goes to form 1
same,Hygroscopicity (GVS),[3],slightly hygroscopic
same,XRPD post DVS,[3],change
same,Polymorphic form after GVS (XRPD),[3],converted to Form 1
same,"DVS, RH at which the form goes to form 1",[3]; relative humidity,RH >50%
same,HPLC (purity),HPLC-UV chemical purity,99.70% and 99.80%
same,TGA Decomposition temperature,[5],at 178.5 °C
same,DSC (thermal events) Endotherm,[6],181.0° ° C.
same,"PLM (morphology), particle size",[7],<30 μm
same,PLM (morphology),[7]; particle shape,Small needles
"CC(=O)N[C@H]1[C@H]([C@H](O)[C@H](O)CO)OC(O)(C(=O)O)C[C@@H]1O (stereo partly shown) [Sialic acid, N-acetylneuraminic acid]",solubility,"[8]; aqueous with cosolvent or surfactant or cyclodextrin, solvent: Water:Acetic Acid (80:20) v/v",> 213000 µg/mL
same,solubility,"[8]; organic solvent or mixture, solvent: 1,4-Dioxane",< 4900 µg/mL
same,solubility,"[8]; organic solvent or mixture, solvent: 1-Butanol",< 6100 µg/mL
same,solubility,"[8]; organic solvent or mixture, solvent: 2-Ethoxy ethanol",< 6800 µg/mL
same,solubility,"[8]; organic solvent or mixture, solvent: 2-Methyl THF",< 5200 µg/mL
same,solubility,"[8]; organic solvent or mixture, solvent: 2-propanol",< 5000 µg/mL
same,solubility,"[8]; organic solvent or mixture, solvent: Acetic acid",< 5400 µg/mL
same,solubility,"[8]; organic solvent or mixture, solvent: Acetone",< 5600 µg/mL
same,solubility,"[8]; organic solvent or mixture, solvent: Acetone:Ethanol (50:50) v/v",< 5100 µg/mL
same,solubility,"[8]; organic solvent or mixture, solvent: Acetone:Ethyl Acetate (50:50) v/v",< 4800 µg/mL
same,solubility,"[8]; organic solvent or mixture, solvent: Acetone:Water (90:10) v/v",< 5100 µg/mL
same,solubility,"[8]; organic solvent or mixture, solvent: Acetonitrile",< 4800 µg/mL
same,solubility,"[8]; organic solvent or mixture, solvent: Dichloromethane",< 5100 µg/mL
same,solubility,"[8]; organic solvent or mixture, solvent: Diisopropyl ether",< 4800 µg/mL
same,solubility,"[8]; organic solvent or mixture, solvent: Dimethylacetamide",> 72600 µg/mL
same,solubility,"[8]; organic solvent or mixture, solvent: Dimethylsulfoxide",> 301000 µg/mL
same,solubility,"[8]; organic solvent or mixture, solvent: Ethanol",< 5100 µg/mL
same,solubility,"[8]; organic solvent or mixture, solvent: Ethanol:Water (90:10) v/v",< 5200 µg/mL
same,solubility,"[8]; organic solvent or mixture, solvent: Ethyl acetate",< 5800 µg/mL
same,solubility,"[8]; organic solvent or mixture, solvent: Ethynol (Ethanol:Acetone:Ethyl acetate 85:12:3 wt %)",< 5300 µg/mL
same,solubility,"[8]; organic solvent or mixture, solvent: Isopropyl acetate",< 6500 µg/mL
same,solubility,"[8]; organic solvent or mixture, solvent: Methanol",< 5200 µg/mL
same,solubility,"[8]; organic solvent or mixture, solvent: Methylethyl ketone",< 5700 µg/mL
same,solubility,"[8]; organic solvent or mixture, solvent: Methylisobutyl ketone",< 6300 µg/mL
same,solubility,"[8]; organic solvent or mixture, solvent: N-Methyl-2-pyrrolidone",> 72100 µg/mL
same,solubility,"[8]; organic solvent or mixture, solvent: Nitromethane",< 6000 µg/mL
same,solubility,"[8]; organic solvent or mixture, solvent: Tetrahydrofuran",< 5300 µg/mL
same,solubility,"[8]; organic solvent or mixture, solvent: Toluene",< 5900 µg/mL
same,solubility,"[8]; organic solvent or mixture, solvent: n-Heptane",< 5300 µg/mL
same,solubility,"[8]; organic solvent or mixture, solvent: tert-Butylmethyl ether",< 4600 µg/mL
same,solubility,[8]; solvent: Water,> 212000 µg/mL
same,Visual Observation,"[8]; solvent: 1,4-Dioxane",Partial Solubility
same,Visual Observation,[8]; solvent: 1-Butanol,Partial Solubility
same,Visual Observation,[8]; solvent: 2-Ethoxy ethanol,Partial Solubility
same,Visual Observation,[8]; solvent: 2-Methyl THF,Partial Solubility
same,Visual Observation,[8]; solvent: 2-propanol,Partial Solubility
same,Visual Observation,[8]; solvent: Acetic acid,Partial Solubility
same,Visual Observation,[8]; solvent: Acetone,Low Solubility
same,Visual Observation,[8]; solvent: Acetone:Ethanol (50:50) v/v,Partial Solubility
same,Visual Observation,[8]; solvent: Acetone:Ethyl Acetate (50:50) v/v,Low Solubility
same,Visual Observation,[8]; solvent: Acetone:Water (90:10) v/v,Partial Solubility
same,Visual Observation,[8]; solvent: Acetonitrile,Low Solubility
same,Visual Observation,[8]; solvent: Dichloromethane,Partial Solubility
same,Visual Observation,[8]; solvent: Diisopropyl ether,Low Solubility
same,Visual Observation,[8]; solvent: Dimethylacetamide,Soluble
same,Visual Observation,[8]; solvent: Dimethylsulfoxide,Soluble
same,Visual Observation,[8]; solvent: Ethanol,Partial Solubility
same,Visual Observation,[8]; solvent: Ethanol:Water (90:10) v/v,Partial Solubility
same,Visual Observation,[8]; solvent: Ethyl acetate,Extremely low
same,Visual Observation,[8]; solvent: Ethynol (Ethanol:Acetone:Ethyl acetate 85:12:3 wt %),Partial Solubility
same,Visual Observation,[8]; solvent: Isopropyl acetate,Extremely low
same,Visual Observation,[8]; solvent: Methanol,Partial Solubility
same,Visual Observation,[8]; solvent: Methylethyl ketone,Partial Solubility
same,Visual Observation,[8]; solvent: Methylisobutyl ketone,Low Solubility
same,Visual Observation,[8]; solvent: N-Methyl-2-pyrrolidone,Soluble
same,Visual Observation,[8]; solvent: Nitromethane,Low Solubility
same,Visual Observation,[8]; solvent: Tetrahydrofuran,Low Solubility
same,Visual Observation,[8]; solvent: Toluene,Partial Solubility
same,Visual Observation,[8]; solvent: Water,Soluble
same,Visual Observation,[8]; solvent: Water:Acetic Acid (80:20) v/v,Soluble
same,Visual Observation,[8]; solvent: n-Heptane,Extremely low
same,Visual Observation,[8]; solvent: tert-Butylmethyl ether,Extremely low
